One molecule from PMC6269737, “Effect of Honokiol on Cytochrome P450 and UDP-Glucuronosyltransferase Enzyme Activities in Human Liver Microsomes” (Molecules, 2013) can be followed below.

Entries after “also recorded” stand apart in the source; their conditions may differ. Where two headings read alike, the source gives them in different places.

One data set deals with T1, CYP1A2 (Homo sapiens, UniProt P05177).
T1 sequence (P05177 1-516): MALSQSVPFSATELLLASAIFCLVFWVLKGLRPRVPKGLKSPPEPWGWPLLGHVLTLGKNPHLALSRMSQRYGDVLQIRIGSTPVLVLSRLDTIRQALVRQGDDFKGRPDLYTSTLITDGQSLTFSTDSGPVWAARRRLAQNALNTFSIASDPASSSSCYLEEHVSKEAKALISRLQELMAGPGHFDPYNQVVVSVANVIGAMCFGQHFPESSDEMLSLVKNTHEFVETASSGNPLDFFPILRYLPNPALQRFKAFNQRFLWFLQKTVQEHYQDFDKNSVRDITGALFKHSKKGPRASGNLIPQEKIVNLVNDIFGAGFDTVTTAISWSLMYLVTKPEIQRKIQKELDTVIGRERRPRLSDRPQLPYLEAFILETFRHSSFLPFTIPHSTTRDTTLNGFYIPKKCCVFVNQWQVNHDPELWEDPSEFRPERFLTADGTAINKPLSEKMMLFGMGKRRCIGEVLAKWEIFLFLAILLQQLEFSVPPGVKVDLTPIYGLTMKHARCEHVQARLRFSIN
The data set can be described thus: CYP1A2-catalyzed phenacetin O-deethylation inhibition in pooled human liver microsomes (LC-MS/MS). The format is in vitro ADME. As to the method:
(§1) The inhibitory potential (IC50 values) of honokiol on CYP activities was evaluated in pooled human liver microsomes using liquid chromatography-tandem mass spectrometry (LC-MS/MS). […] Honokiol was dissolved in acetonitrile. […] After a 3 min preincubation at 37 °C, the reactions were initiated by addition of an NADP generating system and incubated for 15 min at 37 °C in a shaking water bath. The reaction was then stopped by placement of the tubes on ice and adding 100 μL of ice-cold methanol containing internal standards (^13C2, ^15N-acetaminophen for acetaminophen and N-deethylamodiaquine, and d9-1-hydroxybufuralol for 4-hydroxydiclofenac, 4-hydroxybupropion, 7-hydroxycoumarin, 4-hydroxymephenytoin, 1'-hydroxybufuralol, and 1'-hydroxymidazolam). The incubation mixtures were then centrifuged at 13,000 × g for 4 min. All incubations were performed in triplicate, and average values were used.
(§2) The reaction was initiated by the addition of the cocktail containing seven CYP probe substrates and bupropion.
(§3) The metabolites formed from the seven CYP cocktail substrates were simultaneously determined according to our previously described LC-MS/MS method with minor modification; the concentration of 4-hydroxybupropion for CYP2B6 activity was quantified separately by LC-MS/MS. A tandem mass spectrometer (TSQ Quantum Access, Thermo Scientific, San Jose, CA, USA) coupled with a Nanospace SI-2 LC system (Tokyo, Japan) was used. The column and autosampler temperatures were 50 °C and 6 °C, respectively. The mass spectrometer was equipped with an electrospray ionization (ESI) source and operated in positive ion mode. The ESI source settings for ionization of the metabolites were as follows: capillary voltage, 4200 V; vaporizer temperature, 350 °C; capillary temperature 330 °C; sheath gas pressure, 35 psi; auxiliary gas pressure, 15 psi. Quantification was performed by selected reaction monitoring (SRM) of [M+H]^+ ions and the related product ions for each metabolite. […] Analytical data were processed using Xcalibur® software (Thermo Scientific).
(§4) The incubation mixtures were centrifuged at 13,000 × g for 4 min, and the supernatants were diluted as follows: dilution of 20 μL supernatant with 180 μL of 25% methanol for CYP2C8; dilution of 50 μL supernatant with 50 μL of water for CYP2C9, CYP2C19, CYP2D6, and CYP1A2; and dilution of 20 μL supernatant with 80 μL of water for CYP2B6. Aliquots (5 μL) of the diluted supernatants were then analyzed by LC-MS/MS.
(§5) The apparent kinetic parameters for inhibitory potential (Ki values) were estimated from the fitted curves using Enzyme Kinetics Ver. 1.1 software (Systat Software Inc.).
In general terms: Microsomes from liver hold many membrane-bound enzymes, among them those of drug oxidation.

The target in the next data set is T2, CYP2B6 (Homo sapiens, UniProt P20813).
T2 sequence (P20813 1-491): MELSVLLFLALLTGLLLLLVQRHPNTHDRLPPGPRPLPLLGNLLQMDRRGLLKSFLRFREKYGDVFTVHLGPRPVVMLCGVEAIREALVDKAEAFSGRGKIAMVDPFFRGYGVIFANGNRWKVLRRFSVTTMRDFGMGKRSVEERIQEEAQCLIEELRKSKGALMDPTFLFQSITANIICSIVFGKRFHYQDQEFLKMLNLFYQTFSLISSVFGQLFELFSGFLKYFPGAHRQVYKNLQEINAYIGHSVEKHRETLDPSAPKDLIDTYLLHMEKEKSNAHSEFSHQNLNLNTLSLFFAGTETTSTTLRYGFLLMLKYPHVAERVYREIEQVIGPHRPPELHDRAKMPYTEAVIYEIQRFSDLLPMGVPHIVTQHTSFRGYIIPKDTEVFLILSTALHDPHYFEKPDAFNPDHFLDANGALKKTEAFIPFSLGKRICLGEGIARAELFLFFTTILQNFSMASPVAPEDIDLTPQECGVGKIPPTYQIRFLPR
The data set can be described thus: biochemical. The note with it: for IC50: IC50 (μM) of honokiol, Bupropion hydroxylation. As for the experimental part: as §1, §2, §3, §4, §5

A further data set concerns the target CYP2C19 (Homo sapiens, UniProt P33261). The data set can be described thus: biochemical. The note with it: for IC50: IC50 (μM) of honokiol, S-Mephenytoin 4'-hydroxylation. As to the method:
as §1, §2, §3, §4, §5

A further data set concerns the target T3, CYP2C8 (Homo sapiens, UniProt P10632).
T3 sequence (P10632 1-490): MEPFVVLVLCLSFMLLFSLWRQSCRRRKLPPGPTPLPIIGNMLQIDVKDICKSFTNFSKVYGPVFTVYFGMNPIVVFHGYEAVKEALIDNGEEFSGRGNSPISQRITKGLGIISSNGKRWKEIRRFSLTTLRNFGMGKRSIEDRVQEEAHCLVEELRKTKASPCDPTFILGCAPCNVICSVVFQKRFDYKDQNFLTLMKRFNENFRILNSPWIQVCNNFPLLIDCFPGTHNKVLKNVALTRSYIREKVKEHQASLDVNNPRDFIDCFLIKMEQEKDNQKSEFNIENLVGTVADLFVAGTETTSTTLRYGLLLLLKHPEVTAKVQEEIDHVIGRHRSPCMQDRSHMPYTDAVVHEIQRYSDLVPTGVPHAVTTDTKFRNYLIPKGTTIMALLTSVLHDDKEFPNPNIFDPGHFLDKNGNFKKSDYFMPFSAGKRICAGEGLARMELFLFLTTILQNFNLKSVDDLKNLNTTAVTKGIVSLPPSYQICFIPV
The data set can be described thus: biochemical. Particulars: for IC50: IC50 (μM) of honokiol, Amodiaquine N-deethylation. As to the method: as §1, §2, §3, §4, §5

The next data set deals with CYP2C9 (Homo sapiens, UniProt P11712). The data set can be described thus: biochemical. The note with it: for IC50: IC50 (μM) of honokiol, Diclofenac 4-hydroxylation. As for the experimental part:
as §1, §2, §3, §4, §5

For another data set, the target named is CYP2D6 (Homo sapiens, UniProt P10635). The experiment in a line: biochemical. The note with it: for IC50: IC50 (μM) of honokiol, Bufuralol 1'-hydroxylation. As to the method:
as §1, §2, §3, §4, §5

Setting [1] is: with preincubation, 30 min preincubation with NADPH.

Broadly, the IC50 is the concentration at which inhibition is half-maximal. By Ki is commonly meant a dissociation constant, usually derived from enzyme kinetics or from competition with a known ligand. Low values mean tighter binding, high ones weaker binding.

CYP2C9, sequence (P11712 whole entry): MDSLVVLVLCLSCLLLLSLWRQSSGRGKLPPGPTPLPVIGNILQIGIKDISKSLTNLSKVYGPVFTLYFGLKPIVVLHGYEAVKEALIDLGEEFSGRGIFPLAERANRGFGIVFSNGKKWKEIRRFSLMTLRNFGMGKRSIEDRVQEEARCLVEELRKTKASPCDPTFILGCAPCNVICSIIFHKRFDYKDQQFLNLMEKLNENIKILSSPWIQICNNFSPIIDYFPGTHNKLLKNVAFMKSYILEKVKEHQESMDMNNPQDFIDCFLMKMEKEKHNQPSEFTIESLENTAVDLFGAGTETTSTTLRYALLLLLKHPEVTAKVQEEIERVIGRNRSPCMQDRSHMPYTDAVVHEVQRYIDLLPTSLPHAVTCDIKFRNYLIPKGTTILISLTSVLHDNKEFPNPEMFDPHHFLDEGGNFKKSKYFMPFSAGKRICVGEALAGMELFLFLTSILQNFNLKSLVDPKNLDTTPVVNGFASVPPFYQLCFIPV
CYP2D6, sequence (P10635 whole entry): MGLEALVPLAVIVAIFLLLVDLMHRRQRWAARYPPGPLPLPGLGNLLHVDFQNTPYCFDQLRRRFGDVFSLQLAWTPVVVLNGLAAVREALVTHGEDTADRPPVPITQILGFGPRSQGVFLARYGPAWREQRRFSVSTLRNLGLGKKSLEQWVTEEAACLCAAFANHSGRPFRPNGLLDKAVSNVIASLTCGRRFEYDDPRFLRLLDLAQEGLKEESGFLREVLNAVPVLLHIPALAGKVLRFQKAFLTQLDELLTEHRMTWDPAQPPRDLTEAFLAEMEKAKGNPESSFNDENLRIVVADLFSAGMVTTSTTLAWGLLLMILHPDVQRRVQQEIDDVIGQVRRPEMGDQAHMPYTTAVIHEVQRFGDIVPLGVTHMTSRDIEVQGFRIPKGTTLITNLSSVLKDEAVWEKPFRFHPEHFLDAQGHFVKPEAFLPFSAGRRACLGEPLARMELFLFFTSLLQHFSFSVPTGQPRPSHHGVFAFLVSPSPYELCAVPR
CYP2C19, sequence (P33261 whole entry): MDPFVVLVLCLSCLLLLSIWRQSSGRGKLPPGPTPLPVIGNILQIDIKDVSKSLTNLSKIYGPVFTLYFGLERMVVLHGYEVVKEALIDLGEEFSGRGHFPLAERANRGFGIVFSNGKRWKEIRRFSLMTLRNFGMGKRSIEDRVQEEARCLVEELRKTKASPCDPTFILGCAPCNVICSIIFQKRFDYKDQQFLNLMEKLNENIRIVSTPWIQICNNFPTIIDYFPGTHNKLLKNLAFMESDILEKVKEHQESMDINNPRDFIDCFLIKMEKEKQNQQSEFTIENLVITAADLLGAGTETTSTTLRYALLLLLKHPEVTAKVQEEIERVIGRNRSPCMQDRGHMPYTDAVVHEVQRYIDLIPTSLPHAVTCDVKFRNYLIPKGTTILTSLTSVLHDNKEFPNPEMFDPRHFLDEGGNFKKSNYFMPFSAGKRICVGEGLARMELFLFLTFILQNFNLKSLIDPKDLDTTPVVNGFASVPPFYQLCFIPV

Take `C=CCc1ccc(O)c(-c2ccc(O)c(CC=C)c2)c1` [honokiol, 2-(4-hydroxy-3-prop-2-enyl-phenyl)-4-prop-2-enyl-phenol]: the concentration for half-maximal inhibition (IC50) at CYP1A2 (50 μM phenacetin (cocktail), pooled human liver microsomes (H161), read-out: IC50 (μM) of honokiol, no preincubation) came out at 2.1 µM; at CYP1A2 (30 min preincubation in the presence of NADPH, pooled HLM (H161), read-out: IC50 (μM) of honokiol, with preincubation) it was 4.7 µM; against CYP2B6 (no preincubation, 50 μM bupropion, pooled HLM (H161)), 13.8 µM; on CYP2B6 (setting [1]), 20.8 µM; against CYP2C19 (no preincubation, 100 μM [S]-mephenytoin, pooled HLM (H161)), 2.2 µM; against CYP2C19 (setting [1]) it was 2.9 µM. The IC50 on CYP2C8 (no preincubation, 2.5 μM amodiaquine, pooled HLM (H161)) was 8.9 µM; against CYP2C8 (setting [1]), 15.5 µM; at CYP2C9 (no preincubation, 10 μM diclofenac, pooled HLM (H161)) it was 4.1 µM; at CYP2C9 (setting [1]), 3.9 µM; on CYP2D6 (no preincubation, 5.0 μM bufuralol, pooled HLM (H161)) it was 14 µM; on CYP2D6 (setting [1]) it was 38.1 µM. In addition, the Ki worked out at 1.2 µM at CYP1A2 (10–80 μM phenacetin, pooled HLM (H161)); 17.5 µM on CYP2B6; 0.57 µM at CYP2C19; 4.9 µM on CYP2C8; 0.54 µM at CYP2C9; 12 µM at CYP2D6. Moreover, the Inhibition mode entry on CYP1A2 (pooled HLM (H161)) is recorded as “noncompetitively; also recorded: noncompetitive”.
